The record followed here is US20240317706A1, “COMPOUNDS THAT MEDIATE PROTEIN DEGRADATION AND METHODS OF USE THEREOF” (Monte Rosa Therapeutics, Inc., priority 2021, published 2024).

Broadly, the Dmax is the largest share of the target that was removed. Read a low Dmax as shallow degradation. Broadly, the Ki is the equilibrium dissociation constant of an inhibitor or competing ligand from its target. High values mean a looser hold on the target, low ones a stronger hold on the target.

In assay [1] the target is T1, CDK2 (Homo sapiens, UniProt P24941).
T1 construct: HEK293 clonal lines with CRISPR KI HiBiT tag on CDK2 proteins; host or cells: HEK293 clonal line, CRISPR knock-in HiBiT-CDK2, stably expressing LgBiT
The assay is described as follows: HiBiT assay (CDK2 degradation). The note with it: HEK293 clonal line with CRISPR KI HiBiT tag on CDK2, 24 hours, HiBiT Lysis Reagent. It is filed as cell-based. Here is the method: HEK293 clonal lines with CRISPR KI HiBiT tag on CDK2 proteins and stably expressing LgBiT protein were obtained from Promega (Madison, WI). Cells were plated at 5000 cells per well using Multiflo (BioTek) in 384-well white solid bottom plates (Corning, 3570BC) in 25 ul volume in DMEM media (DMEM, high glucose, HEPES, no phenol red (ThermoFisher Scientific, 21063029)) containing 10% FBS (Corning, 35-075-CV), 1% Penicillin/Streptomycin (ThermoFisher Scientific, 15140-122). Cells were incubated for 16 hours at 37° C., 5% CO2. 75 nL of a compound at 30 μM were dosed into the plate using an Echo® 650 liquid handler (Labcyte). Cells were incubated at 37° C., 5% CO2 for 24 hours. 5 ul of HiBiT Lysis Reagent (Promega, N3030) is added using Combi Multidrop (ThermoFisher Scientific), plates are incubated for 15′ at 37° C., 5% CO2 and then signal was read on a Pherastar FSX using “LUM plus” optic module.
Analysis was performed in Scinamic (Scinamic, Cambridge, MA). Luminescence response (R) was calculated by the formula: response=100*(S−N)/(P−N) where S is the signal of the well, N and P the mean negative and positive control values respectively of the same plate. The luminescence response was then fitted in Scinamic using a 3-parameter agonist logistic fit (hillslope=1, EC50>0, top/bottom unconstrained).
(HiBiT is a short tag that completes a luciferase, so light tracks the accessible tagged protein.)

Another assay has as its target CRBN-DDB1 (Homo sapiens, UniProt Q96SW2). The assay is described as follows: Compound binding to CRBN by HTRF assay. The settings on record: CRBN-DDB1 2.5 nM, Cy5-Thalidomide 100 nM, 30 min; Ki from geometric mean IC50 by Cheng-Prustoff transformation. An outline of the steps:
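HTRF displacement of Cy5-thalidomide probe (100 nM) from His-CRBN-DDB1 (2.5 nM) with anti-His terbium cryptate, in HEPES/NaCl/TCEP/EDTA/Tween20 buffer. 10-point 1:3 compound series, 30 min at ambient temperature; signal normalised to DMSO and lenalidomide controls, IC50 fitted and Ki derived by Cheng-Prusoff.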
A general note: In TR-FRET formats the signal depends on donor and acceptor labels being close together.

In assay [2] the target is T1, CDK2. The assay is described as follows: NanoBiT assay (CDK2 degradation). It is filed as cell-based. The note with it: 24 hours. The method in brief:
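HEK293 cells with endogenous HiBiT-tagged CDK2 knock-in and stable LgBiT, with Endurazine live-cell substrate; cells were dosed with compound (30 μM stock) for 24 h at 37 °C, then luminescence was read. Response normalised to plate negative/positive controls and fitted to a 3-parameter logistic (hillslope=1) for EC50.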

Sequence of CRBN-DDB1 (Q96SW2 whole entry): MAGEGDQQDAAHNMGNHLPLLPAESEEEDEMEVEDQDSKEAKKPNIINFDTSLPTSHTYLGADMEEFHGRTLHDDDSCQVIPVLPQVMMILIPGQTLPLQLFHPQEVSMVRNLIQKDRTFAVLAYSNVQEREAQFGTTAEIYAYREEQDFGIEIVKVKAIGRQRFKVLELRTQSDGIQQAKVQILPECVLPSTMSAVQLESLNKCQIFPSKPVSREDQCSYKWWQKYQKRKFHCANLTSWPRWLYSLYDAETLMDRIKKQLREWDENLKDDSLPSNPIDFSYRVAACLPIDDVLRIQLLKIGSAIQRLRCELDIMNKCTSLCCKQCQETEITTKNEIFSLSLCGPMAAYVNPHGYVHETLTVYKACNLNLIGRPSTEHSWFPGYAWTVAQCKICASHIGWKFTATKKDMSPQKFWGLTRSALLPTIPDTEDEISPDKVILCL
Sequence of CRBN-DDB1 (Q16531 whole entry partner): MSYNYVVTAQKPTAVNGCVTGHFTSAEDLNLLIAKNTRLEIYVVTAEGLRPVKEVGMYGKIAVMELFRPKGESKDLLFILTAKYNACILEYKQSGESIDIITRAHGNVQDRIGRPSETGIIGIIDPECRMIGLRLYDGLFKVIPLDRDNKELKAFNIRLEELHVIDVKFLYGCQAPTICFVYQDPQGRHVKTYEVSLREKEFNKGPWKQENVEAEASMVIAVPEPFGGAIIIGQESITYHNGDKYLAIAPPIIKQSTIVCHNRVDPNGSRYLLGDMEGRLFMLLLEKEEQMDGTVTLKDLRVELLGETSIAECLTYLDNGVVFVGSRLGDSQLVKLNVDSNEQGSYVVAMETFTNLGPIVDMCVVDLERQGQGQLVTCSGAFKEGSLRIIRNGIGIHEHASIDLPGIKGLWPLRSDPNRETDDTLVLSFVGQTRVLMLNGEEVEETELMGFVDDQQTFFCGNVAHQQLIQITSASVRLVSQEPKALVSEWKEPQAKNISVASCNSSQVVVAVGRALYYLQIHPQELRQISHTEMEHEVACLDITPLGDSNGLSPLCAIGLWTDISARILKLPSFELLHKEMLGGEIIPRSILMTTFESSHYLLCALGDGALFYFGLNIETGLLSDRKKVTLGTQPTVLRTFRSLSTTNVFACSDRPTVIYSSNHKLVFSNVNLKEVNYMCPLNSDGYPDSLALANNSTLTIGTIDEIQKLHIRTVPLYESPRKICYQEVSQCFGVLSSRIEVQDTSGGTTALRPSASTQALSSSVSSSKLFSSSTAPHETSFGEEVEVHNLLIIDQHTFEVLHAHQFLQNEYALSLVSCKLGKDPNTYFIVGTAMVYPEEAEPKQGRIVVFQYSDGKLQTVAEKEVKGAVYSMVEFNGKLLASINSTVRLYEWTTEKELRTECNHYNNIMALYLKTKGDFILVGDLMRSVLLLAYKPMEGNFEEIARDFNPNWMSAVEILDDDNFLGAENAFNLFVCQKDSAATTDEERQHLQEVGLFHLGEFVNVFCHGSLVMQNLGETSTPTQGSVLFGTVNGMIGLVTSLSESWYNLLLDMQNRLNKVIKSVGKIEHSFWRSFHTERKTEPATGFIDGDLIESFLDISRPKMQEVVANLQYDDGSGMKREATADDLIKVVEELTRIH

As to `O=C1CCC(N2Cc3ccc(CNC(=O)O[C@@H]4CCC[C@H]4c4ccccc4)cc3C2=O)C(=O)N1` (mixture of isomers) [Compound 26, rac-(1R,2S)-2-phenylcyclopentyl N-{[2-(2,6-dioxopiperidin-3-yl)-3-oxo-2,3-dihydro-1H-isoindol-5-yl]methyl}carbamate], the Dmax on CDK2 [1] lay in the range of 10 to 50%. For the same compound, the Ki on CRBN-DDB1 is not above 100 nM.

For `O=C1CCC(N2Cc3ccc(CNC(=O)O[C@@H]4C[C@H]5CC[C@@H]4O5)cc3C2=O)C(=O)N1` (mixture of isomers) [Compound 27, rac-(1R,2S,4S)-7-oxabicyclo[2.2.1]heptan-2-yl N-{[2-(2,6-dioxopiperidin-3-yl)-3-oxo-2,3-dihydro-1H-isoindol-5-yl]methyl}carbamate], at CDK2 [1], the Dmax was not above 10%. At CRBN-DDB1, this compound displayed a Ki of 100 to 1000 nM.

Regarding `O=C1CCC(N2Cc3ccc(CNC(=O)O[C@@H]4CO[C@@H]4c4ccccc4)cc3C2=O)C(=O)N1` (mixture of isomers) [Compound 37, rac-(2R,3R)-2-phenyloxetan-3-yl N-{[2-(2,6-dioxopiperidin-3-yl)-3-oxo-2,3-dihydro-1H-isoindol-5-yl]methyl}carbamate], the Dmax at CDK2 [1] was not above 10%. At CRBN-DDB1, this compound registered a Ki of 100 to 1000 nM.

With `O=C1CCC(N2Cc3ccc(CNC(=O)OC[C@@H]4C[C@@H]5C=C[C@H]4CC5)cc3C2=O)C(=O)N1` (mixture of isomers) [Compound 70, rac-[(1R,2R,4R)-bicyclo[2.2.2]oct-5-en-2-yl]methyl N-{[2-(2,6-dioxopiperidin-3-yl)-3-oxo-2,3-dihydro-1H-isoindol-5-yl]methyl}carbamate], on CDK2 [1], the Dmax lay in the range of 50 to 80%. Further, the Ki at CRBN-DDB1 was not above 100 nM.

In turn, `CC1(C)CCC(OC(=O)NCc2ccc3c(c2)C(=O)N(C2CCC(=O)NC2=O)C3)CC1` (stereo not drawn) [Compound 1, 4,4-dimethylcyclohexyl ((2-(2,6-dioxopiperidin-3-yl)-3-oxoisoindolin-5-yl)methyl)carbamate] displayed a Dmax on CDK2 [1] of 10 to 50%. Moreover, the inhibition constant (Ki) at CRBN-DDB1 fell in the range of 100 to 1000 nM.

Compound `O=C1CCC(N2Cc3ccc(CNC(=O)OCC4CC5(CCC5)C4)cc3C2=O)C(=O)N1` (stereo not drawn) [Compound 2, spiro[3.3]heptan-2-ylmethyl ((2-(2,6-dioxopiperidin-3-yl)-3-oxoisoindolin-5-yl)methyl)carbamate] displayed a Dmax at CDK2 [1] of 50 to 80%. Besides, the Ki at CRBN-DDB1 lay within 100 to 1000 nM.

Consider `O=C1CCC(N2Cc3ccc(CNC(=O)OC4CC5(CCC5)C4)cc3C2=O)C(=O)N1` (stereo not drawn) [Compound 3, spiro[3.3]heptan-2-yl ((2-(2,6-dioxopiperidin-3-yl)-3-oxoisoindolin-5-yl)methyl)carbamate], for which the Dmax at CDK2 [1] is 10 to 50%. On CRBN-DDB1, this compound came in with a Ki of 100 to 1000 nM.

`O=C1CCC(N2Cc3ccc(CNC(=O)OC4CC5(CCCCC5)C4)cc3C2=O)C(=O)N1` (stereo not drawn) [Compound 4, spiro[3.5]nonan-2-yl ((2-(2,6-dioxopiperidin-3-yl)-3-oxoisoindolin-5-yl)methyl)carbamate] displayed a Dmax on CDK2 [1] of 50 to 80%. On CRBN-DDB1, the Ki fell in the range of 100 to 1000 nM.

Regarding `O=C1CCC(N2Cc3ccc(CNC(=O)OCC45CC(c6ccccc6)(C4)C5)cc3C2=O)C(=O)N1` (stereo not drawn) [Compound 6, (3-phenylbicyclo[1.1.1]pentan-1-yl)methyl ((2-(2,6-dioxopiperidin-3-yl)-3-oxoisoindolin-5-yl)methyl)carbamate], the Dmax on CDK2 [1] lay within 10 to 50%.

`O=C1CCC(N2Cc3ccc(CNC(=O)OC4CCOC4)cc3C2=O)C(=O)N1` (stereo not drawn) [Compound 13, oxolan-3-yl N-{[2-(2,6-dioxopiperidin-3-yl)-3-oxo-2,3-dihydro-1H-isoindol-5-yl]methyl}carbamate] returned a Dmax on CDK2 [1] not above 10%. Further, the Ki at CRBN-DDB1 fell in the range of 100 to 1000 nM.

Regarding `O=C1CCC(N2Cc3ccc(CNC(=O)OC4CC4)cc3C2=O)C(=O)N1` (stereo not drawn) [Compound 14, cyclopropyl N-{[2-(2,6-dioxopiperidin-3-yl)-3-oxo-2,3-dihydro-1H-isoindol-5-yl]methyl}carbamate], the Dmax on CDK2 [1] lay in the range of 10 to 50%. The Ki at CRBN-DDB1 was 100 to 1000 nM.

`CC1(C)CCC(OC(=O)NCc2ccc3c(c2)CN(C2CCC(=O)NC2=O)C3=O)CC1` (stereo not drawn) [Compound 15, 4,4-dimethylcyclohexyl N-{[2-(2,6-dioxopiperidin-3-yl)-1-oxo-2,3-dihydro-1H-isoindol-5-yl]methyl}carbamate]: the Dmax at CDK2 [1] lay in the range of 50 to 80%. Moreover, the Ki on CRBN-DDB1 was not above 100 nM.

On CDK2 [1], `CC1(COC(=O)NCc2ccc3c(c2)C(=O)N(C2CCC(=O)NC2=O)C3)COC1` (stereo not drawn) [Compound 16, (3-methyloxetan-3-yl)methyl N-{[2-(2,6-dioxopiperidin-3-yl)-3-oxo-2,3-dihydro-1H-isoindol-5-yl]methyl}carbamate] yielded a Dmax not above 10%. Also, the inhibitory constant (Ki) at CRBN-DDB1 was in the range of 100 to 1000 nM.

On to `O=C1CCC(N2Cc3ccc(CNC(=O)OC4CCc5ccccc5C4)cc3C2=O)C(=O)N1` (stereo not drawn) [Compound 17, 1,2,3,4-tetrahydronaphthalen-2-yl N-{[2-(2,6-dioxopiperidin-3-yl)-3-oxo-2,3-dihydro-1H-isoindol-5-yl]methyl}carbamate], for which, at CDK2 [1], the Dmax was in the range of 10 to 50%. Besides, the Ki on CRBN-DDB1 was in the range of 100 to 1000 nM.

For `O=C1CCC(N2Cc3ccc(CNC(=O)OCC4CCc5ccccc54)cc3C2=O)C(=O)N1` (stereo not drawn) [Compound 18, (2,3-dihydro-1H-inden-1-yl)methyl N-{[2-(2,6-dioxopiperidin-3-yl)-3-oxo-2,3-dihydro-1H-isoindol-5-yl]methyl}carbamate], the Dmax on CDK2 [1] was 10 to 50%. The same compound had a Ki at CRBN-DDB1 of 100 to 1000 nM.

In the case of `O=C1CCC(N2Cc3ccc(CNC(=O)OCC4OCCc5ccccc54)cc3C2=O)C(=O)N1` (stereo not drawn) [Compound 19, (3,4-dihydro-1H-2-benzopyran-1-yl)methyl N-{[2-(2,6-dioxopiperidin-3-yl)-3-oxo-2,3-dihydro-1H-isoindol-5-yl]methyl}carbamate], the Dmax at CDK2 [1] was not above 10%. The compound also registered a Ki at CRBN-DDB1 not above 100 nM.

Consider `CC(C)C1CC(COC(=O)NCc2ccc3c(c2)C(=O)N(C2CCC(=O)NC2=O)C3)C1` (stereo not drawn) [Compound 20, [3-(propan-2-yl)cyclobutyl]methyl N-{[2-(2,6-dioxopiperidin-3-yl)-3-oxo-2,3-dihydro-1H-isoindol-5-yl]methyl}carbamate], for which, on CDK2 [1], the Dmax is 10 to 50%. At CRBN-DDB1, this compound gave a Ki not above 100 nM.

At CDK2 [1], `O=C1CCC(N2Cc3ccc(CNC(=O)OCCOC4CC4)cc3C2=O)C(=O)N1` (stereo not drawn) [Compound 21, 2-cyclopropoxyethyl N-{[2-(2,6-dioxopiperidin-3-yl)-3-oxo-2,3-dihydro-1H-isoindol-5-yl]methyl}carbamate] had a Dmax not above 10%. In addition, the Ki on CRBN-DDB1 lay in the range of 100 to 1000 nM.

`CC1(COC(=O)NCc2ccc3c(c2)C(=O)N(C2CCC(=O)NC2=O)C3)CCCO1` (stereo not drawn) [Compound 22, (2-methyloxolan-2-yl)methyl N-{[2-(2,6-dioxopiperidin-3-yl)-3-oxo-2,3-dihydro-1H-isoindol-5-yl]methyl}carbamate] showed a Dmax on CDK2 [1] not above 10%. Also, the inhibition constant (Ki) at CRBN-DDB1 was in the range of 100 to 1000 nM.

Turning to `CO[C@H]1C[C@@H](OC(=O)NCc2ccc3c(c2)C(=O)N(C2CCC(=O)NC2=O)C3)C1` (stereo partly drawn) [Compound 23, (1s,3s)-3-methoxycyclobutyl N-{[2-(2,6-dioxopiperidin-3-yl)-3-oxo-2,3-dihydro-1H-isoindol-5-yl]methyl}carbamate], the Dmax at CDK2 [1] was not above 10%. In addition, the Ki at CRBN-DDB1 lay in the range of 100 to 1000 nM.

`CC1(C)CCC1OC(=O)NCc1ccc2c(c1)C(=O)N(C1CCC(=O)NC1=O)C2` (stereo not drawn) [Compound 24, 2,2-dimethylcyclobutyl N-{[2-(2,6-dioxopiperidin-3-yl)-3-oxo-2,3-dihydro-1H-isoindol-5-yl]methyl}carbamate] returned a Dmax on CDK2 [1] of 10 to 50%. This compound also yielded a Ki on CRBN-DDB1 of 100 to 1000 nM.

`Nc1c(CNc2nnc(C3CC4(CCC4)C3)o2)ccc2c1C(=O)N(C1CCC(=O)NC1=O)C2` (stereo not drawn) [Compound 144, 3-(7-amino-1-oxo-6-(((5-(spiro[3.3]heptan-2-yl)-1,3,4-oxadiazol-2-yl)amino)methyl)isoindolin-2-yl)piperidine-2,6-dione] registered a Ki on CRBN-DDB1 of 100 to 1000 nM. At CDK2 [2] (HEK293, HEK293 clonal line with CRISPR KI HiBiT tag on CDK2, Endurazine live cell substrate), the Dmax was 10 to 50%.

For the compound `O=C1CCC(N2Cc3c(cc(CNc4nnc(C5CC6(CCC6)C5)o4)cc3C(F)(F)F)C2=O)C(=O)N1` (stereo not drawn) [Compound 145, 3-(1-oxo-6-(((5-(spiro[3.3]heptan-2-yl)-1,3,4-oxadiazol-2-yl)amino)methyl)-4-(trifluoromethyl)isoindolin-2-yl)piperidine-2,6-dione], at CRBN-DDB1, the Ki lay within 100 to 1000 nM. Further, the “CDK2 NanoBiT Dmax (%)” value on CDK2 [2] (HEK293 clonal line with CRISPR KI HiBiT tag on CDK2, Endurazine live cell substrate) was “B (B represents a Dmax value of >10% and ≤50%)”.
